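Compound exposure: 48 hours, 5 concentrations, 96-well plates. GI50 marks 50% less growth.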 Calls of active or inactive are those of the source. Rule as the data show it: active = GI50 up to about 1.1 µM and inactive = higher.
Legend:
Assay in all cases: NCI anticancer screen, dose series, 48 h
786-0 = test system: 786-0
A549 = test system: A549
ACHN = test system: ACHN
BT-549 = test system: BT-549
CAKI-1 = test system: CAKI-1
CCRF-CEM = test system: CCRF-CEM
IGROV-1 = test system: IGROV-1
K562 = test system: K562
LOX IMVI = test system: LOX IMVI
M14 = test system: M14
MOLT-4 = test system: MOLT-4
OVCAR-4 = test system: OVCAR-4
RXF 393 = test system: RXF 393
SNB-19 = test system: SNB-19
SR = test system: SR
T47D = test system: T47D
TK-10 = test system: TK-10
HCT-116 = test system: HCT-116
NCI-H23 = test system: NCI-H23
UACC-62 = test system: UACC-62

Measured: GI50

COc1cc(C2c3cc4c(cc3C3OC[C@@H]2C3CO)OCO4)cc(OC)c1OC (stereo partly drawn)
inactive: 786-0 43.1 µM | A549 44.7 µM | ACHN 80.4 µM | BT-549 29.9 µM | CAKI-1 78.7 µM | CCRF-CEM 23.4 µM | IGROV-1 43.1 µM | K562 24.9 µM | LOX IMVI 31.2 µM | M14 31.3 µM | MOLT-4 33.1 µM | OVCAR-4 71.1 µM | RXF 393 37.6 µM | SNB-19 57.3 µM | SR 13.3 µM | T47D > 100 µM | TK-10 37.5 µM

CC(=O)Nc1ccc2c(C(=O)O)c(C)c(O)nc2n1
inactive: 786-0 > 100 µM | A549 > 100 µM | ACHN > 100 µM | BT-549 > 100 µM | CAKI-1 > 100 µM | CCRF-CEM > 10 µM | HCT-116 71.3 µM | IGROV-1 > 100 µM | K562 59.8 µM | M14 > 100 µM | MOLT-4 51.3 µM | NCI-H23 > 100 µM | RXF 393 > 100 µM | SNB-19 25.5 µM | SR > 10 µM | T47D 89.7 µM | TK-10 > 100 µM | UACC-62 > 100 µM

CCOC(=O)C(NC(=O)c1ccccc1)(N1CCN(c2cc3c(cc2F)c(=O)c(C(=O)O)cn3C2CC2)CC1)C(F)(F)F (stereo not drawn)
inactive: 786-0 32.4 µM | A549 34 µM | ACHN 23.9 µM | BT-549 21.8 µM | CAKI-1 19.3 µM | CCRF-CEM 3.37 µM | HCT-116 17.1 µM | IGROV-1 30.4 µM | K562 20.2 µM | M14 19.6 µM | MOLT-4 14.1 µM | NCI-H23 15.1 µM | OVCAR-4 22.5 µM | RXF 393 19.5 µM | SNB-19 29.2 µM | SR 20.5 µM | T47D 20.6 µM | UACC-62 22 µM

CCOC(=O)CCC(NC(=O)c1ccc(OCc2ccc3nc(OC)c(OC)nc3c2)cc1)C(=O)OCC (stereo not drawn)
inactive: 786-0 > 100 µM | A549 > 100 µM | ACHN 32.9 µM | BT-549 43.3 µM | CAKI-1 > 100 µM | CCRF-CEM 24 µM | HCT-116 50.7 µM | IGROV-1 55.8 µM | K562 22.3 µM | LOX IMVI 80 µM | M14 21.9 µM | MOLT-4 22.7 µM | NCI-H23 > 100 µM | RXF 393 25.9 µM | SNB-19 74.3 µM | SR 45.1 µM | T47D 31.7 µM | TK-10 35.2 µM | UACC-62 30.4 µM

Cn1c2ccccc2c2c(-c3ccccc3)[n+]3ccccc3nc21
inactive: 786-0 23.2 µM | A549 52.7 µM | ACHN 98.6 µM | BT-549 23 µM | CAKI-1 > 100 µM | CCRF-CEM 30.5 µM | IGROV-1 26.7 µM | K562 34 µM | LOX IMVI 18.5 µM | M14 18.1 µM | MOLT-4 42.2 µM | NCI-H23 23.2 µM | OVCAR-4 61.7 µM | SNB-19 65.8 µM | SR 23.9 µM | T47D 51.5 µM | TK-10 31.9 µM | UACC-62 21.2 µM

CC(=N\N=C\c1ccccn1)/C(C)=N/N=C/c1ccccn1
inactive: 786-0 > 100 µM | A549 > 100 µM | ACHN > 100 µM | BT-549 > 100 µM | CAKI-1 > 100 µM | CCRF-CEM > 100 µM | HCT-116 > 100 µM | IGROV-1 > 100 µM | LOX IMVI > 100 µM | M14 > 100 µM | MOLT-4 > 10 µM | NCI-H23 > 100 µM | OVCAR-4 94.4 µM | RXF 393 > 100 µM | SNB-19 > 100 µM | SR 88.5 µM | T47D > 100 µM | TK-10 > 100 µM
